Experimental data published in patent publication US4774381A, “Herbicide resistant tobacco” (E. I. Du Pont de Nemours and Company, priority 1985, dated 1988).
pIC50: −log10 of the molar value.

Key:
Normal (H1) cell line = experiment: Callus growth test; format: cell-based, Nicotiana tabacum; settings: for % of control fresh weight / Fr. Wt.: 10 ppb herbicide, H1 (Table 4)
Protocol: (§1) Callus growth tests were conducted substantially according to the following procedure. Approximately 50 mg callus tissue, grown on non-selective media, was spread over 7 cm diameter paper filter discs (Whatman No. 1), which were placed on the medium surface of petri dishes containing C1 agar media and varying concentrations of chlorsulfuron. The resulting cultures were incubated for 14 days at 25±1°, under fluorescent lamps programmed to provide a 16-hour photoperiod per day. At the conclusion of the incubation period, tissue was scraped from each filter disc and weighed. The final fresh weights were recorded, and means and standard errors of the means determined for all cases. The significance of differences between responses of individual cell lines to various concentrations of chlorsulfuron was determined at a probability level of 5% by a t-test for populations having different standard deviations, as described by Snedecor, et al., Statistical Methods (Iowa State University Press, Ames, Iowa, (1967), pp. 114-116).
(§2) A series of experiments was performed to investigate further the cross-resistance of various resistant cell lines to other herbicidally-effective sulfonamides. First, several homozygous mutant cell lines were evaluated for resistance to sulfometuron-methyl and chlorsulfuron by callus growth tests, performed substantially similarly to the callus growth experiments previously described. In these experiments, callus cultures were derived from R1 plants, which constitute the progeny produced by self-fertilization of a regenerated plant.

[1] = test system: C3/C3 homozygous mutant cell line; experiment: Callus growth test; format: cell-based, Nicotiana tabacum; settings: 10 ppb herbicide
Protocol: as §1, §2

[2] = test system: S4/S4 homozygous mutant cell line; experiment: Callus growth test; format: cell-based, Nicotiana tabacum; settings: for % of control fresh weight / Fr. Wt.: 10 ppb herbicide, S4/S4 (Table 4)
Protocol: as §1, §2

[3] = test system: S5/S5 homozygous mutant cell line; experiment: Callus growth test; format: cell-based, Nicotiana tabacum; settings: 10 ppb herbicide
Protocol: as §1, §2

[4] = test system: C4/C4 homozygous mutant cell line; experiment: Callus growth test; format: cell-based, Nicotiana tabacum; settings: 10 ppb herbicide
Protocol: as §1, §2

[5] = test system: S6/S6 homozygous mutant cell line; experiment: Callus growth test; format: cell-based, Nicotiana tabacum; settings: 10 ppb herbicide
Protocol: as §1, §2

[6] = test system: S1/S1 homozygous mutant cell line; experiment: Callus growth test; format: cell-based, Nicotiana tabacum; settings: 10 ppb herbicide
Protocol: as §1, §2

[7] = test system: acetolactate synthase (ALS), Isolate 16 (S4/S4) extract; experiment: ALS activity assay in cell extracts; format: biochemical, Nicotiana tabacum; settings: for Uninhibited activity (%) in the Presence of Chlorsulfuron: Isolate 16 (S4/S4)
Protocol: Cell suspension cultures of normal (H1) and homozygous mutant (Isolate 16) cell lines were washed in C1 liquid medium. After washing, cells were extracted in a 100 mM potassium phosphate buffer (pH 7.5) containing 0.5 mM MgCl2, 1 mM sodium pyruvate, 0.5 mM thiamine pyrophosphate, 10 micromolar flavine-adenine dinucleotide (FAD) and 10 percent (by volume) glycerol. Polyclar AT (BDH Chemicals Ltd) was added to a final concentration of 250 mg per gram fresh weight of tissue. After centrifugation at 27,000xg for 15 minutes at 4°, an equal volume of a saturated solution of amminium sulfate was added to the supernatant fraction. The resultant precipitate (representing a 0 to 50 percent ammonium sulfate fraction) was redissolved in 100 mM potassium phosphate buffer (pH 7.5) containing 0.5 mM MgCl2, 1 mM sodium pyruvate, and salts were removed by passage through a Sephadex G-25 (Pharmacia PD-10) column.
ALS activity was assayed in a total volume of 500 microliters containing 100 microliters of the column eluate, 65 mM potassium phosphate buffer (pH 7.5) containing 10 mM MgCl2, 40 mM sodium pyruvate, 250 micromolar thiamine pyrophosphate, 23 micromolar FAD, and 1, 5, 10, 50, 100, 500 or 1000 ppb chlorsulfuron or sulfometuron-methyl. After incubation at 30° for 90 minutes, 250 microliters of 6N H2 SO4 was added to each assay tube, and the tubes were incubated at 55° for 10 minutes to terminate the enzymatic reaction and achieve complete conversion of acetolactate to acetoin. Acetoin content was then measured by a modification of the procedure described by Westerfield, J. Biol. Chem. 161:495 (1945). To each tube was added sequentially 100 microliters 50 percent NaOH, 150 microliters 0.5 percent creatine, and 150 microliters 5 percent alpha-napthol (in 2.5N NaOH). Color development was accelerated by incubation at 55° for 10 minutes. Tubes were then centrifuged, and the optical density was read at 530 nm. Background optical densities, which were subtracted from the optical density values of the reactions, were determined for each extract from parallel assays to which the enzyme extract was added after the addition of 6N H2 SO4. Protein concentrations were measured with Bio-Rad Protein Assay reagent with bovine serum albumin as a standard. Data points and specific activities, which are set forth below and in FIG. 2, represent the average values of at least three independent determinations. ALS activities are presented in FIG. 2 as percent activity in the absence of herbicide.
Responses to chlorsulfuron were determined for ALS activities in extracts of cells suspension cultures derived from nine individuals that differed with resepct to the S4 mutation. As described above, these individuals were produced by self-fertilization of an S4/+ heterozygote, and their genotypes were established by means of progeny analysis. Callus and plant phenotypes were determined by growth responses of cell cultures and seedlings, respectively, on herbicide-supplemented medium. […] In contrast, all individuals homozygous for the S4 mutation contained a highly resistant form of the enzyme. […] The correlation between both callus and plant phenotype and the response of ALS activity in vitro to the herbicide is both absolute and quantitative.

[8] = test system: callus cultures derived from plants that carried the S4 mutation; experiment: Callus growth on herbicide-supplemented medium; format: cell-based, Nicotiana tabacum; settings: herbicide at 5 parts per billion (ppg) (14 nM)
From the text: A plant heterozygous for the S4 mutation was constructed by a series of backcrosses of a plant regenerated from a herbicide-resistant tobacco cell line with plants of the parental variety (N. tabacum cv. Xanthi). Self-fertilization of this heterozygous individual yielded homozygous mutant, heterozygous, and homozygous normal progeny in the ratio of 1 to 2 to 1, respectively, which is expected for segregation of a single semidominant nuclear allele. The genotypes of these progeny plants were confirmed by analysis of a subsequent generation. Callus cultures were established as previously described from several of the genetically defined isolates produced by self-fertilization of the S4/+ heterozygote. […] Cell suspension cultures were initiated from these callus cultures and from the parental haploid cell line (H1) by transferring callus to a liquid C1 medium in which 2,4-dichlorophenoxyacetic acid (2 mg/L) had been substituted for napthaleneacetic acid and from which agar had been omitted. ALS activity was then assayed in extracts prepared from these cell suspension cultures as follows.

Row | SMILES | % of control fresh weight (Normal (H1) cell line) | Fr. Wt. (Normal (H1) cell line) | % of control fresh weight [1] | Fr. Wt. [1] | % of control fresh weight [2] | Fr. Wt. [2] | % of control fresh weight [3] | Fr. Wt. [3] | % of control fresh weight [4] | Fr. Wt. [4] | % of control fresh weight [5] | Fr. Wt. [5] | % of control fresh weight [6] | Fr. Wt. [6] | growth on supplemented medium [8] | also measured
1 | COc1nc(C)nc(NC(=O)NS(=O)(=O)c2ccccc2Cl)n1 [Chlorsulfuron, chlorsulfuron] | 1.3% | 33 ± 2 | 86.7% | 1896 ± 119 | 96.5% | 3171 ± 260 | 27.5% | 725 ± 95 | 83.5% | 3453 ± 231 | 32.1% | 1076 ± 108 | 11.5% | 309 ± 34 | capable of growth | inhibition at 0.028 µM ([2]; Nicotiana tabacum, 10 ppb (28 nM), homozygous mutant cell line, read-out: growth inhibited (percent)): < 5%; Uninhibited activity (%) in the Presence of Chlorsulfuron ([7]; 10 ppb): […]; Uninhibited activity (%) in the Presence of Chlorsulfuron ([7]; 30 ppb): […]; Uninhibited activity (%) in the Presence of Chlorsulfuron ([7]; 100 ppb): […]; concentration inhibiting ALS activity 50 percent ([7]; homozygous mutant extract, not achieved at highest concentration tested, 90 min): […]; pIC50 ([7]; homozygous mutant extract, not achieved at highest concentration tested, read-out: concentration inhibiting ALS activity 50 percent): […]
2 | COC(=O)c1ccccc1S(=O)(=O)NC(=O)Nc1nc(C)cc(C)n1 [Sulfometuron-methyl, sulfometuron-methyl] | 1.2% | 32 ± 2 | 62.6% | 1369 ± 63 | 33.6% | 1105 ± 80 | 13.0% | 344 ± 55 | 83.9% | 3473 ± 323 | 26.5% | 887 ± 92 | 6.4% | 172 ± 14 | capable of growth | activity at 0.001 µg/mL (Normal (H1) cell line; Nicotiana tabacum, 336 h, sulfometuron-methyl 1 ppb, Normal (H1) (Table 6), read-out: % of fresh weight at 0 ppb): 1.4%; activity at 0.01 µg/mL (Normal (H1) cell line; Nicotiana tabacum, 336 h, sulfometuron-methyl 10 ppb, Normal (H1) (Table 6), read-out: % of fresh weight at 0 ppb): 1%; Fr. wt. (Normal (H1) cell line; sulfometuron-methyl 1 ppb, Normal (H1) (Table 6)): 39 ± 2 mg; Fr. wt. (Normal (H1) cell line; sulfometuron-methyl 10 ppb, Normal (H1) (Table 6)): 29 ± 1 mg; growth of S4/S4 mutant cell line ([2]; 200 ppb sulfometuron-methyl): completely inhibits growth; activity at 0.01 µg/mL ([2]; Nicotiana tabacum, 336 h, sulfometuron-methyl 10 ppb, S4/S4 (Table 6), read-out: % of fresh weight at 0 ppb): 34%; Fr. wt. ([2]; sulfometuron-methyl 10 ppb, S4/S4 (Table 6)): 1105 ± 80 mg; resistance of mutant ALS activity to inhibition ([7]; mutant cell line versus parental activity): more resistant than the parental activity
